Experimental data from US11479551B2, “MTA-cooperative PRMT5 inhibitors” (Mirati Therapeutics, Inc., priority 2019, dated 2022).
Where two headings read alike, the source gives them in different places.

Molecular target: PRMT5/MEP50 complex (Homo sapiens (Human), UniProt O14744)
Experiment: PRMT5:MEP50 FlashPlate Assay (histone H4 peptide substrate, plus and minus MTA)
Format: biochemical
Experimental: The PRMT5 inhibitory activity of compounds of the present invention was determined using either a PRMT5:MEP50 FlashPlate Assay (Reaction Biology Corporation) or a PRMT5:MEP50 HotSpot Assay (Reaction Biology Corporation).
1. PRMT5:MEP50 FlashPlate Assay

[1] = IC50 + 2 μM MTA (nM), in the presence of 2 μM MTA
[2] = in the absence of MTA, read-out: IC50

Chain of PRMT5/MEP50 complex (O14744 2-637): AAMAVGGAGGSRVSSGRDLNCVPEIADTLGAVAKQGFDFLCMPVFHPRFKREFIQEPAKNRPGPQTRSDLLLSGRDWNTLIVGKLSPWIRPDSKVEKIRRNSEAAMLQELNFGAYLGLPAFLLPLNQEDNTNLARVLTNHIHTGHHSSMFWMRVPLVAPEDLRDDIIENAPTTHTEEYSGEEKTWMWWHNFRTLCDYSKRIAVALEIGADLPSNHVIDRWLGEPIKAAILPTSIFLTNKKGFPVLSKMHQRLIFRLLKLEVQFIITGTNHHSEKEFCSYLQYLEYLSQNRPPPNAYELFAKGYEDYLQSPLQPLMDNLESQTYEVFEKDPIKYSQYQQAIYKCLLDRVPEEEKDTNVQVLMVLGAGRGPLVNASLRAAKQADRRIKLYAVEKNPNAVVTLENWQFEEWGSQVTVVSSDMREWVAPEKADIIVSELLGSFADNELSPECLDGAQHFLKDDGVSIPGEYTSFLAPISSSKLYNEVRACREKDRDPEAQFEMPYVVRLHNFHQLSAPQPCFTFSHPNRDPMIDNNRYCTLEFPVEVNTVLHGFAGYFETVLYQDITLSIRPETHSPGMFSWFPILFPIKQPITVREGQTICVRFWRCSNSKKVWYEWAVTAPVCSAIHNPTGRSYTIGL
Chain of PRMT5/MEP50 complex (Q9BQA1 2-342 partner): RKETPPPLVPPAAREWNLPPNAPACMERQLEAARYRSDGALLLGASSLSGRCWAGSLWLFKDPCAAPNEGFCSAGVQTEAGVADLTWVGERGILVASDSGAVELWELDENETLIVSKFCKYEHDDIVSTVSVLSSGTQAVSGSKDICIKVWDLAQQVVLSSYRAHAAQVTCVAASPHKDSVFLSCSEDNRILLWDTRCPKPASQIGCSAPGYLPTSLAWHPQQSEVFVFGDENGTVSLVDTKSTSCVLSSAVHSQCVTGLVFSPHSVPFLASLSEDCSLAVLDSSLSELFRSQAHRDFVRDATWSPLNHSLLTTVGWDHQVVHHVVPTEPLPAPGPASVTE

| Compound | IC50 [1] | IC50 [2] |
| --- | --- | --- |
| NCc1n[nH]c(=O)c2ccc(-c3cnc4c(F)cc(Cl)cn34)cc12 [Example 4-27, 4-(aminomethyl)-6-(6-chloro-8-fluoroimidazo[1,2-a]pyridin-3-yl)phthalazin-1(2H)-one] | 1300 nM | > 100000 nM |
| NCc1n[nH]c(=O)c2ccc(-c3cnc4cc(F)ccn34)cc12 [Example 4-29, 4-(aminomethyl)-6-(7-fluoroimidazo[1,2-a]pyridin-3-yl)phthalazin-1(2H)-one] | 190 nM | 4030 nM |
| Cc1ccn2c(-c3ccc4c(=O)[nH]nc(CN)c4c3)cnc2c1 [Example 4-30, 4-(aminomethyl)-6-(7-methylimidazo[1,2-a]pyridin-3-yl)phthalazin-1(2H)-one] | 400 nM | 4750 nM |
| NCc1n[nH]c(=O)c2ccc(-c3cnc4ccc(Cl)cn34)cc12 [Example 4-34, 4-(aminomethyl)-6-(6-chloroimidazo[1,2-a]pyridin-3-yl)phthalazin-1(2H)-one] | 110 nM | 2800 nM |
| N#Cc1ccn2c(-c3ccc4c(=O)[nH]nc(CN)c4c3)cnc2c1 [Example 4-35, 3-(4-(aminomethyl)-1-oxo-1,2-dihydrophthalazin-6-yl)imidazo[1,2-a]pyridine-7-carbonitrile] | 1100 nM | > 100000 nM |
| NCc1n[nH]c(=O)c2ccc(-c3cnc4ccc(OC5CC5)cn34)cc12 [Example 4-37, 4-(aminomethyl)-6-(6-cyclopropoxyimidazo[1,2-a]pyridin-3-yl)phthalazin-1(2H)-one] | 1.1 nM | 213 nM |
| NCc1n[nH]c(=O)c2ccc(-c3cnc4ccc(OC(F)(F)F)cn34)cc12 [Example 4-38, 4-(aminomethyl)-6-(6-(trifluoromethoxy)imidazo[1,2-a]pyridin-3-yl)phthalazin-1(2H)-one] | 25 nM | 850 nM |
| NCc1n[nH]c(=O)c2ccc(-c3cnc4[nH]cc(F)c4c3)cc12 [Example 4-42, 4-(aminomethyl)-6-(3-fluoro-1H-pyrrolo[2,3-b]pyridin-5-yl)phthalazin-1(2H)-one] | 45 nM | 1380 nM |
| NCc1n[nH]c(=O)c2ccc(-c3cnc4[nH]cc(C(F)(F)F)c4c3)cc12 [Example 4-43, 4-(aminomethyl)-6-(3-(trifluoromethyl)-1H-pyrrolo[2,3-b]pyridin-5-yl)phthalazin-1(2H)-one] | 32 nM | 1520 nM |
| NCc1n[nH]c(=O)c2ccc(-c3cnc4[nH]cc(CO)c4c3)cc12 [Example 4-47, 4-(aminomethyl)-6-(3-(hydroxymethyl)-1H-pyrrolo[2,3-b]pyridin-5-yl)phthalazin-1(2H)-one] | 19 nM | 667 nM |
| Cn1ncc(-c2ccc3c(=O)[nH]nc(CN)c3c2)c1Cl [Example 4-49, 4-(aminomethyl)-6-(5-chloro-1-methyl-pyrazol-4-yl)-2H-phthalazin-1-one] | 300 nM | 5930 nM |
| NCc1n[nH]c(=O)c2ccc(-c3cncc(Cc4ccccc4)c3)cc12 [Example 4-50, 4-(aminomethyl)-6-(5-benzylpyridin-3-yl)phthalazin-1(2H)-one] | 22 nM | 456 nM |
| NCc1n[nH]c(=O)c2ccc(-c3cncc(S(=O)(=O)c4ccccc4)c3)cc12 [Example 4-52, 4-(aminomethyl)-6-(5-(phenylsulfonyl)pyridin-3-yl)phthalazin-1(2H)-one] | 18 nM | 669 nM |
| NCc1n[nH]c(=O)c2ccc(-c3cnsc3-c3ccccc3)cc12 [Example 4-54, 4-(aminomethyl)-6-(5-phenylisothiazol-4-yl)phthalazin-1(2H)-one] | 77 nM | 1550 nM |
| NCc1n[nH]c(=O)c2ccc(-c3cncc(Sc4ccccc4)c3)cc12 [Example 4-55, 4-(aminomethyl)-6-(5-(phenylthio)pyridin-3-yl)phthalazin-1(2H)-one] | 1.2 nM | 30 nM |
| NCc1n[nH]c(=O)c2ccc(-c3cncc(Sc4ccc(Cl)cc4)c3)cc12 [Example 4-57, 4-(aminomethyl)-6-(5-((4-chlorophenyl)thio)pyridin-3-yl)phthalazin-1(2H)-one] | 11 nM | 85 nM |
| NCc1n[nH]c(=O)c2ccc(-c3cncc(Sc4ccccc4Cl)c3)cc12 [Example 4-58, 4-(aminomethyl)-6-(5-((2-chlorophenyl)thio)pyridin-3-yl)phthalazin-1(2H)-one] | 1.8 nM | 36 nM |
| Cc1ccc(Sc2cncc(-c3ccc4c(=O)[nH]nc(CN)c4c3)c2)cc1 [Example 4-60, 4-(aminomethyl)-6-(5-(p-tolylthio)pyridin-3-yl)phthalazin-1(2H)-one] | 2.3 nM | 117 nM |
| Cc1cccc(Sc2cncc(-c3ccc4c(=O)[nH]nc(CN)c4c3)c2)c1 [Example 4-61, 4-(aminomethyl)-6-(5-(m-tolylthio)pyridin-3-yl)phthalazin-1(2H)-one] | 3 nM | 149 nM |
| COc1cccc(Oc2cncc(-c3ccc4c(=O)[nH]nc(CN)c4c3)c2)c1 [Example 4-68, 4-(aminomethyl)-6-(5-(3-methoxyphenoxy)pyridin-3-yl)phthalazin-1(2H)-one] | 10 nM | 243 nM |
| Cc1ccccc1Oc1cncc(-c2ccc3c(=O)[nH]nc(CN)c3c2)c1 [Example 4-72, 4-(aminomethyl)-6-(5-(o-tolyloxy)pyridin-3-yl)phthalazin-1(2H)-one] | 3 nM | 73 nM |

Other lines, results leading:

| IC50 [1] | IC50 [2] | Compound |
| --- | --- | --- |
| 140 nM | 6790 nM | NCc1n[nH]c(=O)c2ccc(-c3cnc4cc(Cl)ccn34)cc12 [Example 4-28, 4-(aminomethyl)-6-(7-chloroimidazo[1,2-a]pyridin-3-yl)phthalazin-1(2H)-one] |
| 410 nM | 7630 nM | Cn1ncc(-c2ccc3c(=O)[nH]nc(CN)c3c2)c1C#N [Example 4-31, 4-(4-(aminomethyl)-1-oxo-1,2-dihydrophthalazin-6-yl)-1-methyl-1H-pyrazole-5-carbonitrile] |
| > 100000 nM | > 100000 nM | Cc1nc2ccc(F)cn2c1-c1ccc2c(=O)[nH]nc(CN)c2c1 [Example 4-33, 4-(aminomethyl)-6-(6-fluoro-2-methylimidazo[1,2-a]pyridin-3-yl)phthalazin-1(2H)-one] |
| 1.7 nM | 109 nM | NCc1n[nH]c(=O)c2ccc(-c3cnc4ccc(-c5ccccc5)cn34)cc12 [Example 4-39, 4-(aminomethyl)-6-(6-phenylimidazo[1,2-a]pyridin-3-yl)phthalazin-1(2H)-one] |
| 56 nM | 4810 nM | N#Cc1c[nH]c2ncc(-c3ccc4c(=O)[nH]nc(CN)c4c3)cc12 [Example 4-41, 5-(4-(aminomethyl)-1-oxo-1,2-dihydrophthalazin-6-yl)-1H-pyrrolo[2,3-b]pyridine-3-carbonitrile] |
| 0.6 nM | 329 nM | COCc1c[nH]c2ncc(-c3ccc4c(=O)[nH]nc(CN)c4c3)cc12 [Example 4-46, 4-(aminomethyl)-6-(3-(methoxymethyl)-1H-pyrrolo[2,3-b]pyridin-5-yl)phthalazin-1(2H)-one] |
| 22 nM | 750 nM | COc1c(-c2ccc3c(=O)[nH]nc(CN)c3c2)cnn1C [Example 4-48, 4-(aminomethyl)-6-(5-methoxy-1-methyl-1H-pyrazol-4-yl)phthalazin-1(2H)-one] |
| 55 nM | 1140 nM | CN(C)c1cncc(-c2ccc3c(=O)[nH]nc(CN)c3c2)c1 [Example 4-53, 4-(aminomethyl)-6-(5-(dimethylamino)pyridin-3-yl)phthalazin-1(2H)-one] |
| 3.8 nM | 107 nM | NCc1n[nH]c(=O)c2ccc(-c3cncc(Sc4cccc(Cl)c4)c3)cc12 [Example 4-56, 4-(aminomethyl)-6-(5-((3-chlorophenyl)thio)pyridin-3-yl)phthalazin-1(2H)-one] |
| 2.1 nM | 68 nM | Cc1ccccc1Sc1cncc(-c2ccc3c(=O)[nH]nc(CN)c3c2)c1 [Example 4-59, 4-(aminomethyl)-6-(5-(o-tolylthio)pyridin-3-yl)phthalazin-1(2H)-one] |
| 120 nM | 2230 nM | NCc1n[nH]c(=O)c2ccc(-c3cncc(Oc4cccnc4)c3)cc12 [Example 4-62, 4-(aminomethyl)-6-(5-(pyridin-3-yloxy)pyridin-3-yl)phthalazin-1(2H)-one] |
| 58 nM | 1380 nM | NCc1n[nH]c(=O)c2ccc(-c3cncc(Oc4ccccn4)c3)cc12 [Example 4-63, 4-(aminomethyl)-6-(5-(pyridin-2-yloxy)pyridin-3-yl)phthalazin-1(2H)-one] |
| 230 nM | 4110 nM | NCc1n[nH]c(=O)c2ccc(-c3cncc(Oc4ncccn4)c3)cc12 [Example 4-64, 4-(aminomethyl)-6-(5-(pyrimidin-2-yloxy)pyridin-3-yl)phthalazin-1(2H)-one] |
| 16 nM | 517 nM | NCc1n[nH]c(=O)c2ccc(-c3cncc(Oc4cccc(F)c4)c3)cc12 [Example 4-65, 4-(aminomethyl)-6-(5-(3-fluorophenoxy)pyridin-3-yl)phthalazin-1(2H)-one] |
| 10 nM | 624 nM | N#Cc1cccc(Oc2cncc(-c3ccc4c(=O)[nH]nc(CN)c4c3)c2)c1 [Example 4-69, 3-((5-(4-(aminomethyl)-1-oxo-1,2-dihydrophthalazin-6-yl)pyridin-3-yl)oxy)benzonitrile] |
| 10 nM | 221 nM | NCc1n[nH]c(=O)c2ccc(-c3cncc(Oc4ccccc4F)c3)cc12 [Example 4-70, 4-(aminomethyl)-6-(5-(2-fluorophenoxy)pyridin-3-yl)phthalazin-1(2H)-one] |
| 1.1 nM | 76 nM | Cc1ccc(Oc2cncc(-c3ccc4c(=O)[nH]nc(CN)c4c3)c2)cc1Cl [Example 4-74, 4-(aminomethyl)-6-(5-(3-chloro-4-methylphenoxy)pyridin-3-yl)phthalazin-1(2H)-one] |
